Test results published in article PMC12586182 (Frontiers in Oncology, 2025).
Where “and” joins values, the source holds several entries; their conditions need not be identical. Equal values may be shown once. Read-outs that look alike come from different tables or passages of the source.

Key:
SIK3 [1] = biological target: T1, SIK3 (Homo sapiens, UniProt Q9Y2K2); experiment: Competition binding assay (Eurofins DiscoverX)
Experimental: Inhibition of MLK1 and B-RAF at K M,ATP was determined in a radiometric assay using ^32P-labeled ATP at Eurofins Cerep SA (Celle-Lévescault, France). Interaction with SIK3 was assessed in a competition binding assay at Eurofins DiscoverX LLC (San Diego, CA, USA).

activated B-RAF = activated B-RAF (Homo sapiens, UniProt P15056); experiment: Surface plasmon resonance binding (Biacore 1S+)
SIK3 [2] = biological target: T1, SIK3; experiment: Kinase enzyme activity assay at 1 mmol/L ATP (Carna)
Experimental: Inhibition of MLK1 and B-RAF at K M,ATP was determined in a radiometric assay using ^32P-labeled ATP at Eurofins Cerep SA (Celle-Lévescault, France).

MEK1 = biological target: T2, MEK1 (Homo sapiens, UniProt Q02750); experiment: Kinase enzyme activity assay (ELISA, in-house); assay type: biochemical
T2 construct: purchased Carna Biosciences, Inc. 07–41

VA-ES-BJ = experiment: Cell viability assay (ATPlite); assay type: cell-based; settings: Homo sapiens; VA-ES-BJ cell line, 72 hours incubation
Summary of the method: (§1)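 Cells grew 24 h, then received 9-point √10-fold compound series in duplicate (0.4% DMSO final) for 72 h. ATP content was read by ATPlite luminescence and normalized to vehicle controls as % viability. IC50 came from a four-parameter logistic fit; curves with F-value above 1.5 were invalidated, with IC50 then set at the top concentration.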

Hep-G2 = experiment: Cell viability assay (ATPlite); assay type: cell-based; settings: Homo sapiens, HepG2; Hep-G2 cell line, 72 hours incubation
Summary of the method: as §1

HEC-1-B = experiment: Cell viability assay (ATPlite); assay type: cell-based; settings: Homo sapiens; HEC-1-B cell line, 72 hours incubation
Summary of the method: as §1

A-549 = experiment: Cell viability assay (ATPlite); assay type: cell-based; settings: Homo sapiens, A549; A-549 cell line, 72 hours incubation
Summary of the method: as §1

786-O = experiment: Cell viability assay (ATPlite); assay type: cell-based; settings: Homo sapiens, 786-0; 786-O cell line, 72 hours incubation
Summary of the method: as §1

HCC4006 = experiment: Cell viability assay (ATPlite); assay type: cell-based; settings: Homo sapiens; HCC4006 cell line, 72 hours incubation
Summary of the method: as §1

NCC-IT = experiment: Cell viability assay (ATPlite); assay type: cell-based; settings: Homo sapiens, NCCIT; NCC-IT cell line, 72 hours incubation
Summary of the method: as §1

U-118MG = experiment: Cell viability assay (ATPlite); assay type: cell-based; settings: Homo sapiens; U-118MG cell line, 72 hours incubation
Summary of the method: as §1

SK-BR-3 = experiment: Cell viability assay (ATPlite); assay type: cell-based; settings: Homo sapiens; SK-BR-3 cell line, 72 hours incubation
Summary of the method: as §1

DB = experiment: Cell viability assay (ATPlite); assay type: cell-based; settings: Homo sapiens; DB cell line, 72 hours incubation
Summary of the method: as §1

HCC827 = experiment: Cell viability assay (ATPlite); assay type: cell-based; settings: Homo sapiens; HCC827 cell line, 72 hours incubation
Summary of the method: as §1

NCI-H661 = experiment: Cell viability assay (ATPlite); assay type: cell-based; settings: Homo sapiens; NCI-H661 cell line, 72 hours incubation
Summary of the method: as §1

HCT 116 = experiment: Cell viability assay (ATPlite); assay type: cell-based; settings: Homo sapiens; HCT 116 cell line, 72 hours incubation
Summary of the method: as §1

MOLM-13 = experiment: Cell viability assay (ATPlite); assay type: cell-based; settings: Homo sapiens; MOLM-13 cell line, 72 hours incubation
Summary of the method: as §1

SW684 = experiment: Cell viability assay (ATPlite); assay type: cell-based; settings: Homo sapiens; SW684 cell line, 72 hours incubation
Summary of the method: as §1

Hs 578T = experiment: Cell viability assay (ATPlite); assay type: cell-based; settings: Homo sapiens; Hs 578T cell line, 72 hours incubation
Summary of the method: as §1

LNCaP clone FGC = experiment: Cell viability assay (ATPlite); assay type: cell-based; settings: Homo sapiens; LNCaP clone FGC cell line, 72 hours incubation
Summary of the method: as §1

Daoy = experiment: Cell viability assay (ATPlite); assay type: cell-based; settings: Homo sapiens; Daoy cell line, 72 hours incubation
Summary of the method: as §1

NCI-H82 = experiment: Cell viability assay (ATPlite); assay type: cell-based; settings: Homo sapiens; NCI-H82 cell line, 72 hours incubation
Summary of the method: as §1

A-172 = experiment: Cell viability assay (ATPlite); assay type: cell-based; settings: Homo sapiens; A-172 cell line, 72 hours incubation
Summary of the method: as §1

MG-63 = experiment: Cell viability assay (ATPlite); assay type: cell-based; settings: Homo sapiens; MG-63 cell line, 72 hours incubation
Summary of the method: as §1

activated B-RAF, sequence (P15056 whole entry): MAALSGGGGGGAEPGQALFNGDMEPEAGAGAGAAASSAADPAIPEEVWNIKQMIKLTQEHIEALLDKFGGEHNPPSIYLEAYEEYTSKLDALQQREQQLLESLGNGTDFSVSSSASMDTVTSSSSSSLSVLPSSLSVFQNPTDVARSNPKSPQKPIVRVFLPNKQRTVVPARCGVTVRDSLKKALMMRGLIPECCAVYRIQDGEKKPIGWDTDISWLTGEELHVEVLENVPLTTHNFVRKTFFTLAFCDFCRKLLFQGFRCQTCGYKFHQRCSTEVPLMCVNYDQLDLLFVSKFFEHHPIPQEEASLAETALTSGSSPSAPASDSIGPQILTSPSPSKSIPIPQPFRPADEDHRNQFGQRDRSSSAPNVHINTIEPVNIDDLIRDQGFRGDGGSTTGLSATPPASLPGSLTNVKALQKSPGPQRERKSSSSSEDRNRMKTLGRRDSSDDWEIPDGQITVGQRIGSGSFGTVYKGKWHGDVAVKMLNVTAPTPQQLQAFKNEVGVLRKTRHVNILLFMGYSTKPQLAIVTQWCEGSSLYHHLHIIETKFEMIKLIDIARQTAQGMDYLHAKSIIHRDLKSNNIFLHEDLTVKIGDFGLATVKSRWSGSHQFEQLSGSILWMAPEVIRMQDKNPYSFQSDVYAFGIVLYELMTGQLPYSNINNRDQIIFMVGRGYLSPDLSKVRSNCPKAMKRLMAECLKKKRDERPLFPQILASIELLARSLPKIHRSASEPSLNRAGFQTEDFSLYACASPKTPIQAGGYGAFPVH
T1 sequence (Q9Y2K2 whole entry): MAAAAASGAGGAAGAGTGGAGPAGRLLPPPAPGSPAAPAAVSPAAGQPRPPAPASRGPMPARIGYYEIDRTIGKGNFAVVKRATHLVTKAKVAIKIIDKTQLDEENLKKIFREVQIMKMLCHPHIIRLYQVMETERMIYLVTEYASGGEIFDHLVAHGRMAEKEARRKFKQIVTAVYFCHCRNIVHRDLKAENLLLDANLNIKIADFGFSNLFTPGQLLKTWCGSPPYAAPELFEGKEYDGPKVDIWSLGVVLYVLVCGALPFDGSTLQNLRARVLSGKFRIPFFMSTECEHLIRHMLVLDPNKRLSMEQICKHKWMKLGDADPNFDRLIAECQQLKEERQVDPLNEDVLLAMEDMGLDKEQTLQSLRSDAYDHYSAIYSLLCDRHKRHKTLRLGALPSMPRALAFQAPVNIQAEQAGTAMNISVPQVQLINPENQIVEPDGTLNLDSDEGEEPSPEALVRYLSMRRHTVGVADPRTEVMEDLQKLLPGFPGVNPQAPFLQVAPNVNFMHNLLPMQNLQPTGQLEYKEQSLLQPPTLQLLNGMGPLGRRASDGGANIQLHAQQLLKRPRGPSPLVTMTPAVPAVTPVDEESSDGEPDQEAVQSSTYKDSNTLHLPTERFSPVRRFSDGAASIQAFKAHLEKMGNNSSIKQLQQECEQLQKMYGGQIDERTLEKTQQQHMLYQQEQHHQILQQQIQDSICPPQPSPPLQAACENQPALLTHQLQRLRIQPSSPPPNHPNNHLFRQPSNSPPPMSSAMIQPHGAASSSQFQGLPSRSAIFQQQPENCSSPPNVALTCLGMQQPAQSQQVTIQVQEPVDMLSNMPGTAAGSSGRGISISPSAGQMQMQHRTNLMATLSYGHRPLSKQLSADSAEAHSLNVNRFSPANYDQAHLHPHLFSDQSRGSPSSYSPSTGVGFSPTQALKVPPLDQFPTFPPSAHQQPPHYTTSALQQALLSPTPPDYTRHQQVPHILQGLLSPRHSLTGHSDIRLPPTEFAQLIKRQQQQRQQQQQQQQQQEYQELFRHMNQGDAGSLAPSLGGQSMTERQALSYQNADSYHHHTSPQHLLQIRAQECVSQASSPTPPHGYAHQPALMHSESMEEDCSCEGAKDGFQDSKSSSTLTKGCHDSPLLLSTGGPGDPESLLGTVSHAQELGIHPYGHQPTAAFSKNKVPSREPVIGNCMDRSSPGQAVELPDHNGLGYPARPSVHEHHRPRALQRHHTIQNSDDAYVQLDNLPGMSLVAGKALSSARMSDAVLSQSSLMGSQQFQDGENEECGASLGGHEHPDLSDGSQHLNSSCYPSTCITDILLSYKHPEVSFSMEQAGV
T2 sequence (Q02750 whole entry): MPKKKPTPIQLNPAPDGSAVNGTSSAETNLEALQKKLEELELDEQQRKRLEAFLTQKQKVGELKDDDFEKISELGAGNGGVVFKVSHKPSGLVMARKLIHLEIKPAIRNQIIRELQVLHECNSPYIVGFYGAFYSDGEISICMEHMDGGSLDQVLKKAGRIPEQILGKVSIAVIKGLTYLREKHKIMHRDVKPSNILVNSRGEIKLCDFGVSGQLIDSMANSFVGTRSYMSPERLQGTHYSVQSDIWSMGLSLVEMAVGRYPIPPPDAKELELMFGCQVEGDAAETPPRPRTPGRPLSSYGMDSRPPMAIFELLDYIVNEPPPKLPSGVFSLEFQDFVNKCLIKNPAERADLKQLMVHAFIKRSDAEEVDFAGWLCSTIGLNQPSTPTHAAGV

In the case of `O=C(c1ccc(Oc2ccccc2)cc1Cl)c1c[nH]c2ncnc(N[C@@H]3CC[C@@H](CO)OC3)c12` [nemtabrutinib], the IC50 (SIK3 [1]) is reported as > 10 µM, the “Binding to SIK3” value (SIK3 [1]; competition binding assay) is reported as “No binding” and the “difference in affinity, MEK1 versus B-RAF” value (activated B-RAF; SPR K D B-RAF versus K D MEK1) is reported as 120 fold. For the same compound, the “log (kd)” value (activated B-RAF; SPR, B-RAF) was -1.26, the “log(ka)” value (activated B-RAF; SPR, B-RAF) was 4.66 and the t1/2 (activated B-RAF; SPR, B-RAF) was 12.5 s. For the same compound, the IC50 (SIK3 [2]) was 9.32 µM, the IC50 (MEK1; 1 mmol/L ATP, read-out: IC50, MEK1) was 0.456 µM and the IC50 (MEK1; IC50, MEK1) was ~0.009 µM. For the same compound, the IC50 (MEK1; K M,bin ATP (10 µmol/L ATP), read-out: IC50, MEK1) was 0.0085 µM and 0.00846 µM, the IC50 (VA-ES-BJ) was 7.98 µM and the IC50 (Hep-G2) was 0.979 µM. The IC50 (HEC-1-B) was 0.376 µM, the IC50 (A-549) was 7.26 µM and the IC50 (786-O) was 6.71 µM. It also gave an IC50 (HCC4006) of 6.17 µM, an IC50 (NCC-IT) of 4.62 µM and an IC50 (U-118MG) of 12.9 µM. It also gave an IC50 (SK-BR-3) of 1.85 µM, an IC50 (DB) of 17.3 µM and an IC50 (HCC827) of 4.72 µM. For the same compound, the IC50 (NCI-H661) was 2.38 µM, the IC50 (HCT 116) was 1.65 µM and the IC50 (MOLM-13) was 1 µM. The IC50 (SW684) was 11.9 µM, the IC50 (Hs 578T) was 11.4 µM and the IC50 (LNCaP clone FGC) was > 31.6 µM. It also gave an IC50 (Daoy) of 7.17 µM, an IC50 (NCI-H82) of 12.3 µM and an IC50 (A-172) of 10.6 µM. For the same compound, the IC50 (MG-63) was 5.82 µM.
